Data as given in paper PMC5985439, “Multiple Resistance Evolution in Bipyridylium-Resistant Epilobium ciliatum After Recurrent Selection” (Frontiers in Plant Science, 2018).

Columns and labels:
Assay type in all cases: biochemical, Epilobium ciliatum
[1] = tested on: T1, acetolactate synthase (ALS), S biotype; experiment: ALS activity, colorimetric acetoin at […] nm, de-salted leaf extract; settings: read-out: I50
T1 construct: native enzyme in de-salted crude extract of young leaves

[2] = molecular target: T2, glutamine synthetase (GS), R2 biotype; experiment: GS activity, crude leaf protein extract; settings: stated gain, read-out: I50
T2 construct: gene GS1; native isoenzymes in crude leaf protein extract (rosette stage)

[3] = molecular target: T3, glutamine synthetase (GS), S biotype; experiment: GS activity, crude leaf protein extract; settings: read-out: I50
T3 construct: gene GS1; native isoenzymes in crude leaf protein extract (rosette stage); isoforms not resolved

[4] = molecular target: T4, glutamine synthetase (GS), R1 biotype; experiment: GS activity, crude leaf protein extract; settings: read-out: I50
T4 construct: gene GS1; native isoenzymes in crude leaf protein extract (rosette stage); isoforms not resolved; described as glufosinate-sensitive

| SMILES | IC50 [1] [µM] | IC50 [2] [µM] | IC50 [3] [µM] | IC50 [4] [µM] |
| --- | --- | --- | --- | --- |
| COc1cc(OC)nc(NC(=O)NS(=O)(=O)c2ncccc2C(F)(F)F)n1 [flazasulfuron] | 30.9 | – | – | – |
| CP(=O)(O)CCC(N)C(=O)O (stereo not shown) [glufosinate] | – | 1250 | 18.5 | 25.8 |
